In US9255090B2, “Heterocyclyl derivatives and their use as prostaglandin D2 receptor modulators” (Actelion Pharmaceuticals Ltd., priority 2012, dated 2016):

Tests used:
hCRTH2 receptor = hCRTH2 receptor (Homo sapiens (Human), UniProt Q9Y5Y4); test: hCRTH2 receptor membranes radioligand (3H-PGD2) displacement assay; type: binding; conditions: 3H-PGD2 radioligand displacement, HEK293-hCRTH2 membranes
In short: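 HEK293-hCRTH2 membranes, 20 μg/well; 3H-PGD2 added at 2.5 nM; binding buffer 50 mM Tris, 10 mM MnCl2, 1 mM EDTA, pH 7.0; 90 min RT; GF/C filtration, scintillation count. Nonspecific binding: PGD2 at […].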

eosinophils = test: Eosinophil shape change assay with human plasma; type: cell-based; conditions: Homo sapiens, Eosinophil, human plasma (50%), PGD2 100 nM activation, antagonistic activity
Source text: Eosinophil Shape Change Assay with Human Plasma
After obtaining informed consent, blood samples were drawn by venipuncture according to the protocol approved by the ethics committee of Basel, Switzerland. Polymorphonuclear leukocytes (containing eosinophils, basophils and neutrophils) were isolated using the Polymorphprep™ method (Axis-Shield). […] The polymorphonuclear cell fraction was harvested and depleted for erythrocytes by hypotonic saline lysis.
The polymorphonuclear cells were resuspended in assay buffer (1×PBS with Ca^2+/Mg^2+ supplemented with 0.1% BSA, 10 mM HEPES, and 10 mM Glucose, pH 7.4) at 5×10^6 cells/ml and stained with anti-CD49d-APC ((APC=Allophycocyanin) for 1 hour at RT. Test compounds, at various concentrations, were preincubated 10 min in human plasma (anticoagulated with a thrombin inhibitor). Then, human plasma was added to the polymorphonuclear cells to 50% of final assay volume with polymorphonuclear cells at 4×10^6 cells/ml. After incubation for 10 minutes at 37° C., the polymorphonuclear cells were activated for 5 min at 37° C. by addition of PGD2 at 100 nM final concentration. Activation was stopped by addition of 0.5 ml paraformaldehyde (1%).
Immediately after fixation with paraformaldehyde, the samples were analyzed by FACSCanto flow cytometer (BD Biosciences) and target cells were identified by their forward-scatter (FSC) and side-scatter (SSC) characteristics. Eosinophils were identified by the anti-CD49d-APC signal and their characteristic side-scatter (SSC) profile. Shape change responses, indicative of eosinophil activation, were quantified as the percent of cells with an increased forward-scatter.

hCRTH2 receptor, sequence (Q9Y5Y4 whole entry): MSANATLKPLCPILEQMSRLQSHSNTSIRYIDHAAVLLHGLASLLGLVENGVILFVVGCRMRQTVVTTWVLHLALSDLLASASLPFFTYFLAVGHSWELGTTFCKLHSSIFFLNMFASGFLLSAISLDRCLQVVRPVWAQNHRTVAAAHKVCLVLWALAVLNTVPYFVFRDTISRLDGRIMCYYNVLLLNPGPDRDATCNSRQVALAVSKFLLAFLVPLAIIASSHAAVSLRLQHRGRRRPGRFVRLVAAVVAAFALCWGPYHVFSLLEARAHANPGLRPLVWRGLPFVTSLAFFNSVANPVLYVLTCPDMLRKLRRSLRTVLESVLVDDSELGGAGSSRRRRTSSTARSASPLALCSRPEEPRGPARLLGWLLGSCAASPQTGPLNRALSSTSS

| Structure (SMILES) | IC50 (hCRTH2 receptor) | IC50 (eosinophils) |
| --- | --- | --- |
| O=C(O)Cc1ccc(Cl)c(-c2ccc(F)c3c2CN(C(=O)[C@@H]2C[C@H]2c2ccccc2)CC3)c1 [Example 28, {4-Chloro-3-[5-fluoro-2-((1R,2R)-2-phenyl-cyclopropanecarbonyl)-1,2,3,4-tetrahydro-isoquinolin-8-yl]-phenyl}-acetic acid] | 10 nM | 42 nM |
| CS(=O)(=O)c1ccc(CC(=O)O)cc1-c1ccc(F)c2c1CN(C(=O)[C@@H]1C[C@H]1c1ccccc1)CC2 [Example 29, {3-[5-Fluoro-2-((1R,2R)-2-phenyl-cyclopropanecarbonyl)-1,2,3,4-tetrahydro-isoquinolin-8-yl]-4-methanesulfonyl-phenyl}-acetic acid] | 6.6 nM | 20 nM |
| COc1ccc(CC(=O)O)cc1-c1cc(F)c(F)c2c1CN(C(=O)OCc1ccccc1)CC2 [Example 31, 8-(5-Carboxymethyl-2-methoxy-phenyl)-5,6-difluoro-3,4-dihydro-1H-isoquinoline-2-carboxylic acid benzyl ester] | 12 nM | 436 nM |
| COc1ccc(CC(=O)O)cc1-c1cc(F)cc2c1CN(C(=O)OCc1ccccc1)CC2 [Example 32, 8-(5-Carboxymethyl-2-methoxy-phenyl)-6-fluoro-3,4-dihydro-1H-isoquinoline-2-carboxylic acid benzyl ester] | 10.5 nM | 356 nM |
| COc1ccc(CC(=O)O)cc1-c1cc(F)cc2c1CN(C(=O)[C@@H]1C[C@H]1c1ccccc1)CC2 [Example 34, {3-[6-Fluoro-2-((1R,2R)-2-phenyl-cyclopropanecarbonyl)-1,2,3,4-tetrahydro-isoquinolin-8-yl]-4-methoxy-phenyl}-acetic acid] | 2.7 nM | 25 nM |
| COc1ccc(CC(=O)O)cc1-c1c(F)cc(F)c2c1CN(C(=O)OCc1ccccc1)CC2 [Example 39, 8-(5-Carboxymethyl-2-methoxy-phenyl)-5,7-difluoro-3,4-dihydro-1H-isoquinoline-2-carboxylic acid benzyl ester] | 5.89 nM | 404 nM |
| COc1ccc(CC(=O)O)cc1-c1ccc(F)c2c1CN(C(=O)CCOc1ccc(F)cc1)CC2 [Example 42, (3-{5-Fluoro-2-[3-(4-fluoro-phenoxy)-propionyl]-1,2,3,4-tetrahydro-isoquinolin-8-yl}-4-methoxy-phenyl)-acetic acid] | 8.76 nM | 118 nM |
| COc1ccc(CC(=O)O)cc1-c1ccc(F)c2c1CN(C(=O)CCCc1ccccc1F)CC2 [Example 45, (3-{5-Fluoro-2-[4-(2-fluoro-phenyl)-butyryl]-1,2,3,4-tetrahydro-isoquinolin-8-yl}-4-methoxy-phenyl)-acetic acid] | 2.9 nM | 64 nM |
| COc1ccc(CC(=O)O)cc1-c1ccc(F)c2c1CN(C(=O)CCc1ccccc1)CC2 [Example 54, {3-[5-Fluoro-2-(3-phenyl-propionyl)-1,2,3,4-tetrahydro-isoquinolin-8-yl]-4-methoxy-phenyl}-acetic acid] | 5.83 nM | 184 nM |
| COc1ccc(CC(=O)O)cc1-c1ccc(F)c2c1CN(C(=O)COCc1ccccc1Cl)CC2 [Example 58, (3-{2-[2-(2-Chloro-benzyloxy)-acetyl]-5-fluoro-1,2,3,4-tetrahydro-isoquinolin-8-yl}-4-methoxy-phenyl)-acetic acid] | 3.57 nM | 122 nM |
| COc1ccc(CC(=O)O)cc1-c1ccc(F)c2c1CN(C(=O)CCN1CCc3ccccc31)CC2 [Example 59, {3-[2-(3-2,3-Dihydro-indol-1-yl-propionyl)-5-fluoro-1,2,3,4-tetrahydro-isoquinolin-8-yl]-4-methoxy-phenyl}-acetic acid] | 7.4 nM | 182 nM |
| COc1ccc(CC(=O)O)cc1-c1ccc(F)c2c1CN(C(=O)CCc1c(C)[nH]c3ccccc13)CC2 [Example 61, (3-{5-Fluoro-2-[3-(2-methyl-1H-indol-3-yl)-propionyl]-1,2,3,4-tetrahydro-isoquinolin-8-yl}-4-methoxy-phenyl)-acetic acid] | 8 nM | 52 nM |
| COc1ccc(CC(=O)O)cc1-c1ccc(F)c2c1CN(C(=O)CCc1cn(C)c3ccccc13)CC2 [Example 62, (3-{5-Fluoro-2-[3-(1-methyl-1H-indol-3-yl)-propionyl]-1,2,3,4-tetrahydro-isoquinolin-8-yl}-4-methoxy-phenyl)-acetic acid] | 4.74 nM | 106 nM |
| COc1ccc(CC(=O)O)cc1-c1ccc(Cl)c2c1CN(C(=O)[C@@H]1C[C@H]1c1cccc(F)c1)CC2 [Example 69, (3-{5-Chloro-2-[(1R,2R)-2-(3-fluoro-phenyl)-cyclopropanecarbonyl]-1,2,3,4-tetrahydro-isoquinolin-8-yl}-4-methoxy-phenyl)-acetic acid] | 9.58 nM | 78 nM |
| COc1ccc(CC(=O)O)cc1-c1ccc(Cl)c2c1CN(C(=O)[C@@H]1C[C@H]1c1ccccc1)CC2 [Example 71, {3-[5-Chloro-2-((1R,2R)-2-phenyl-cyclopropanecarbonyl)-1,2,3,4-tetrahydro-isoquinolin-8-yl]-4-methoxy-phenyl}-acetic acid] | 1.68 nM | 22 nM |
| COc1ccc(CC(=O)O)cc1-c1ccc(F)c2c1CN(C(=O)[C@@H]1C[C@H]1c1ccccc1)CC2 [Example 80, {3-[5-Fluoro-2-((1R,2R)-2-phenyl-cyclopropanecarbonyl)-1,2,3,4-tetrahydro-isoquinolin-8-yl]-4-methoxy-phenyl}-acetic acid] | 1.89 nM | 4.7 nM |
| COc1ccc(CC(=O)O)cc1-c1cc(F)c(F)c2c1CN(C(=O)[C@@H]1C[C@H]1c1ccccc1)CC2 [Example 84, {3-[5,6-Difluoro-2-((1R,2R)-2-phenyl-cyclopropanecarbonyl)-1,2,3,4-tetrahydro-isoquinolin-8-yl]-4-methoxy-phenyl}-acetic acid] | 4.82 nM | 5 nM |
| COc1ccc(CC(=O)O)cc1-c1ccc(F)c2c1CN(C(=O)C[C@@H](C)c1ccccc1)CC2 [Example 106, {3-[5-Fluoro-2-((R)-3-phenyl-butyryl)-1,2,3,4-tetrahydro-isoquinolin-8-yl]-4-methoxy-phenyl}-acetic acid] | 10.4 nM | 37 nM |
| COc1ccc(CC(=O)O)cc1-c1ccc(F)c2c1CN(C(=O)CC(C)(C)c1ccccc1)CC2 [Example 108, {3-[5-Fluoro-2-(3-methyl-3-phenyl-butyryl)-1,2,3,4-tetrahydro-isoquinolin-8-yl]-4-methoxy-phenyl}-acetic acid] | 10.1 nM | 92 nM |
| COc1ccc(CC(=O)O)cc1-c1ccc(F)c2c1CN(C(=O)CCn1nc(C)c3ccccc31)CC2 [Example 125, (3-{5-Fluoro-2-[3-(3-methyl-indazol-1-yl)-propionyl]-1,2,3,4-tetrahydro-isoquinolin-8-yl}-4-methoxy-phenyl)-acetic acid] | 16.3 nM | 113 nM |
| COc1ccc(CC(=O)O)cc1-c1ccc(F)c2c1CN(C(=O)NCc1ccc(F)cc1)CC2 [Example 132, {3-[5-Fluoro-2-(4-fluoro-benzylcarbamoyl)-1,2,3,4-tetrahydro-isoquinolin-8-yl]-4-methoxy-phenyl}-acetic acid] | 15.1 nM | > 1000 nM |
